One series deals with T1, human mGluR2 (hmGluR2) (Homo sapiens, UniProt Q14416).
T1 construct: expressed in transfected cells; host or cells: HEK-293 cells, transient co-transfection by electroporation
The series can be described thus: Ca++ functional assay, human mGluR2 transiently over-expressed in HEK-293 cells (agonist and negative allosteric modulator modes). The series is classed as cell-based. Conditions: glutamate at EC80, intracellular calcium (Fluo4AM), read-out: hmGluR2 negative allosteric modulator activity IC50. In a few lines:
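HEK-293 cells transiently co-transfected with hmGluR2, a chimeric G protein and two glutamate transporters; Fluo4-AM calcium fluorescence (485/525 nm) on FLIPR. Agonist mode judged against buffer, NAM mode against EC80 glutamate, 3 min recording; 20-concentration curves over 6 logs, variable-slope fit for IC50, duplicate, two independent runs.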

A value given as a limit tells only on which side of the number the result lay.

The record followed here is US10221179B2, “Substituted pyrazoloquinazolinones and pyrroloquinazolinones as allosteric modulators of group II metabotropic glutamate receptors” (DOMAIN THERAPEUTICS, priority 2014, dated 2019).

T1 sequence (Q14416 19-872): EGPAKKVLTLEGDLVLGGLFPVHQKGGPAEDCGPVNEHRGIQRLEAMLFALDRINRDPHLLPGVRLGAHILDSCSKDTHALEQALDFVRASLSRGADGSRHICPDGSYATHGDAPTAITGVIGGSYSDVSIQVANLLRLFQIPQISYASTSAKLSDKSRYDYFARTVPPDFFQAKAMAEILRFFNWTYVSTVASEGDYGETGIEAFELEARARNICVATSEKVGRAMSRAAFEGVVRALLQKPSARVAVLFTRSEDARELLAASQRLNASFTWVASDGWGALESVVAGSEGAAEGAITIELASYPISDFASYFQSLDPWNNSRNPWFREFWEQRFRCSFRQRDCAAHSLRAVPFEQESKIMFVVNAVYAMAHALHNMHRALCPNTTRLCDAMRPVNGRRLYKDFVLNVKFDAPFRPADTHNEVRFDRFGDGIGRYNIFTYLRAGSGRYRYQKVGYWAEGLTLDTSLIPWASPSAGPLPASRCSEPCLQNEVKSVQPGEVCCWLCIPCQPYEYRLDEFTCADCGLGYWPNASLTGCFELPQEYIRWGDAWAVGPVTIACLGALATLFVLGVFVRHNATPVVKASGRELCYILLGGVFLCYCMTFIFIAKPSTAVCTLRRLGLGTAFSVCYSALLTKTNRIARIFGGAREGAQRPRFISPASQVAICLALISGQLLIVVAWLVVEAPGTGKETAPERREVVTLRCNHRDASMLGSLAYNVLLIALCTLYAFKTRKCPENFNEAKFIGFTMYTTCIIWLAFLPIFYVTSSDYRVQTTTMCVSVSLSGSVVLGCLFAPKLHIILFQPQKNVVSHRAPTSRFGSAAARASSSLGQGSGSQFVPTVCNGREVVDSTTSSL

For orientation: IC50 means the concentration needed to halve the response being measured. One may read the melting point as the temperature of the solid-liquid transition. Regarding `Cn1c(=O)c2ccc(N3CCC(O)C3)cc2n2nc(-c3ccnc(C(F)(F)F)c3)cc12` (stereo not shown) [Example 70, 8-(3-Hydroxy-pyrrolidin-1-yl)-4-methyl-2-(2-trifluoromethyl-pyridin-4-yl)-4H-pyrazolo[1,5-a]quinazolin-5-one], the melting point is > 250 °C. At human mGluR2 (hmGluR2), the half-inhibitory concentration (IC50) is < 1000 nM.
For `Cn1c(=O)c2ccc(C(N)=O)cc2n2nc(-c3ccnc(C(F)(F)F)c3)cc12` [Example 77, 4-Methyl-5-oxo-2-(2-trifluoromethyl-pyridin-4-yl)-4,5-dihydro-pyrazolo[1,5-a]quinazoline-8-carboxylic Acid Amide], in that order: > 250 °C and < 1000 nM.
In the case of `CNC(=O)c1ccc2c(=O)n(C)c3cc(-c4ccnc(C(F)(F)F)c4)nn3c2c1` [Example 78, 4-Methyl-5-oxo-2-(2-trifluoromethyl-pyridin-4-yl)-4,5-dihydro-pyrazolo[1,5-a]quinazoline-8-carboxylic Acid Methylamide], the melting point was > 250 °C. For the same compound, at human mGluR2 (hmGluR2), the IC50 is < 1000 nM.
Compound `CCN(CC)C(=O)c1ccc2c(=O)n(C)c3cc(-c4ccnc(C(F)(F)F)c4)nn3c2c1` [Example 80, 4-Methyl-5-oxo-2-(2-trifluoromethyl-pyridin-4-yl)-4,5-dihydro-pyrazolo[1,5-a]quinazoline-8-carboxylic Acid Diethylamide] gave a melting point of 240 to 245 °C. The IC50 at human mGluR2 (hmGluR2) is < 1000 nM.
For `Cn1c(=O)c2ccc(C(=O)N3CCOCC3)cc2n2nc(-c3ccnc(C(F)(F)F)c3)cc12` [Example 81, 4-Methyl-8-(morpholine-4-carbonyl)-2-(2-trifluoromethyl-pyridin-4-yl)-4H-pyrazolo[1,5-a]quinazolin-5-one], in that order: > 250 °C and < 1000 nM.
For `Cn1c(=O)c2ccc(C(=O)N3CCCC3)cc2n2nc(-c3ccnc(C(F)(F)F)c3)cc12` [Example 82, 4-Methyl-8-(pyrrolidine-1-carbonyl)-2-(2-trifluoromethyl-pyridin-4-yl)-4H-pyrazolo[1,5-a]quinazolin-5-one], in that order: > 250 °C and < 1000 nM.
As for `Cn1c(=O)c2c(F)cccc2n2nc(-c3ccnc(C(F)(F)F)c3)cc12` [Example 85, 6-Fluoro-4-methyl-2-(2-trifluoromethyl-pyridin-4-yl)-4H-pyrazolo[1,5-a]quinazolin-5-one], the melting point was > 250 °C. Further, on human mGluR2 (hmGluR2), the half-maximal inhibitory concentration (IC50) was < 1000 nM.
`COc1cc2c(=O)n(C)c3cc(-c4ccnc(C(F)(F)F)c4)nn3c2cc1OC` [Example 87, 7,8-Dimethoxy-4-methyl-2-(2-trifluoromethyl-pyridin-4-yl)-4H-pyrazolo[1,5-a]quinazolin-5-one]: the melting point is > 250 °C. Further, the half-inhibitory concentration (IC50) at human mGluR2 (hmGluR2) is < 1000 nM.
For `Cn1c(=O)c2cc(F)c(F)cc2n2nc(-c3ccnc(C(F)(F)F)c3)cc12` [Example 88, 7,8-Difluoro-4-methyl-2-(2-trifluoromethyl-pyridin-4-yl)-4H-pyrazolo[1,5-a]quinazolin-5-one], in that order: > 206 °C and < 1000 nM.
For `COc1cc2c(=O)n(C)c3cc(-c4ccnc(C(F)(F)F)c4)nn3c2cc1F` [Example 89, 8-Fluoro-7-methoxy-4-methyl-2-(2-trifluoromethyl-pyridin-4-yl)-4H-pyrazolo[1,5-a]quinazolin-5-one], in that order: 220 to 230 °C and < 1000 nM.
For `COc1cc2c(=O)n(C)c3cc(-c4ccnc(C(F)(F)F)c4)nn3c2cc1N1CCC(O)CC1` [Example 90, 8-(4-Hydroxy-piperidin-1-yl)-7-methoxy-4-methyl-2-(2-trifluoromethyl-pyridin-4-yl)-4H-pyrazolo[1,5-a]quinazolin-5-one], in that order: > 250 °C and < 1000 nM.
